Experimental data as given in patent publication US10874683B2, “N4-hydroxycytidine and derivatives and anti-viral uses related thereto” (Emory University, priority 2016, dated 2020).
Values after ≈ are worked out from the molar mass of the structure shown. Like-named read-outs stand apart in the source and are kept apart here.

Key:
[1] = system: VEEV; assay: microbe, parasite or virus in culture; type: cell-based; conditions: Venezuelan equine encephalitis virus, HeLa; for inhibition at 10 µM: read-out: Viral Inh. 10 uM; for inhibition at 50 µM: read-out: Viral Inh. 50 uM
[2] = system: HeLa
[3] = system: Astrocytes
[4] = system: VEEV; assay: microbe, parasite or virus in culture; type: cell-based; conditions: Venezuelan equine encephalitis virus, Astrocyte; for inhibition at 10 µM: read-out: Viral Inh. 10 uM; for inhibition at 50 µM: read-out: Viral Inh. 50 uM
[5] = system: VERO; assay: Cell viability, VERO (MERV screen); type: cell-based
[6] = system: MERV; assay: MERV (MOI 0.4) viral inhibition in VERO; type: cell-based; conditions: for inhibition at 10 µM: read-out: Viral Inh. 10 uM; for inhibition at 50 µM: read-out: Viral Inh. 50 uM
[7] = in vitro; conditions: African green monkey
[8] = system: SARS Coronavirus Orbani; assay: microbe, parasite or virus in culture; type: cell-based; conditions: Severe acute respiratory syndrome coronavirus, Vero 76
[9] = system: U2OS cell line; assay: Cell viability, U2OS cell line (Chikungunya screen)
[10] = system: Chikungunya virus; assay: Chikungunya virus (MOI 0.5) viral inhibition in U2OS cell line; type: cell-based; conditions: for inhibition at 10 µM: read-out: Viral Inh. 10 uM; for inhibition at 50 µM: read-out: Viral Inh. 50 uM
[11] = Cytotoxicity in HG23 cells (Norovirus screen); type: cell-based; conditions: human
[12] = system: Norovirus GT1; assay: Norovirus GT1 antiviral screening in HG23 cells; type: cell-based

## CCCCCCCOC(=O)ONc1ccn([C@@H]2O[C@H](CO)[C@H](O)C2O)c(=O)n1 (stereo partly drawn) [drawing 87]
[1]
  EC50: 0.57 µM
  inhibition at 10 µM: 100%
  inhibition at 50 µM: 100%
[2]
  Cell Viability 10 uM: 116% ± 20% (n = 4)
  Cell Viability 50 uM: 85% ± 8% (n = 4)

## CCCCCCCNC(=O)ONc1ccn([C@@H]2O[C@H](CO)[C@H](O)C2O)c(=O)n1 (stereo partly drawn) [drawing 95]
[3]
  Cell Viability 10 uM: 98% ± 12% (n = 3)
  Cell Viability 50 uM: 85% ± 19% (n = 3)
[4]
  inhibition at 10 µM: 51%
  inhibition at 50 µM: 37%

## CCCCCCCNC(=O)ONc1ccn([C@@H]2O[C@H](CO)[C@H](O)C2O)c(=O)n1 (stereo partly drawn) [drawing 90]
[1]
  EC50: 6 µM
  inhibition at 10 µM: 93%
  inhibition at 50 µM: 100%
[2]
  Cell Viability 10 uM: 151% ± 16% (n = 4)
  Cell Viability 50 uM: 126% ± 7% (n = 4)

## O=c1nc(NO)ccn1[C@@H]1O[C@H](CO)[C@H](O)C1O (stereo partly drawn) [drawing 86]
[1]
  EC50: 1.24 µM
  inhibition at 10 µM: 100%
  inhibition at 50 µM: 100%
[2]
  Cell Viability 10 uM: 116% ± 24% (n = 4)
  Cell Viability 50 uM: 61% ± 8% (n = 4)

## CC(C)OC(=O)[C@H](C)NP(=O)(OC[C@H]1O[C@@H](n2ccc(NO)nc2=O)C(O)[C@H]1O)Oc1ccccc1 (stereo partly drawn) [drawing 98]
[5]
  Cell Viability 10 uM: 103% ± 14% (n = 4)
  Cell Viability 50 uM: 102% ± 36% (n = 4)
[6]
  inhibition at 10 µM: 29%
  inhibition at 50 µM: 85%

## CCCCCCCNC(=O)ONc1ccn([C@@H]2O[C@H](CO)[C@H](O)C2O)c(=O)n1 (stereo partly drawn) [drawing 100]
[5]
  Cell Viability 10 uM: 118% ± 15% (n = 4)
  Cell Viability 50 uM: 91% ± 39% (n = 4)
[6]
  inhibition at 10 µM: 86%
  inhibition at 50 µM: 98%

## CCCCCCCOC(=O)ONc1ccn([C@@H]2O[C@H](CO)[C@H](O)C2O)c(=O)n1 (stereo partly drawn) [drawing 97]
[5]
  Cell Viability 10 uM: 84% ± 8% (n = 4)
  Cell Viability 50 uM: 58% ± 2% (n = 4)
[6]
  inhibition at 10 µM: 99%
  inhibition at 50 µM: 99%

## CC(C)OC(=O)[C@H](C)NP(=O)(OC[C@H]1O[C@@H](n2ccc(NO)nc2=O)C(O)[C@H]1O)Oc1ccccc1 (stereo partly drawn) [drawing 88]
[1]
  EC50: 16.2 µM
  inhibition at 10 µM: 73%
  inhibition at 50 µM: 100%
[2]
  Cell Viability 10 uM: 137% ± 16% (n = 4)
  Cell Viability 50 uM: 134% ± 16% (n = 4)

## CONc1ccn([C@@H]2O[C@H](CO)[C@H](O)C2O)c(=O)n1 (stereo partly drawn)
[7]
  CC50: > 100 µg/mL
[8]
  EC50: > 100 µg/mL

## CCCCCCCOC(=O)ONc1ccn([C@@H]2O[C@H](CO)[C@H](O)C2O)c(=O)n1 (stereo partly drawn) [drawing 78]
[7]
  CC50: > 100 µg/mL
[8]
  EC50: 0.28 µg/mL (≈ 0.698 µM)

## O=c1nc(NO)c(F)cn1[C@@H]1O[C@H](CO)[C@H](O)C1O (stereo partly drawn) [drawing 84]
[9]
  Cell Viability 10 uM: 81% ± 4% (n = 4)
  Cell Viability 50 uM: 53% ± 2% (n = 4)
[10]
  inhibition at 10 µM: 8%
  inhibition at 50 µM: 51%

## O=c1nc(NO)ccn1[C@@H]1O[C@H](CO)[C@H](O)C1O (stereo partly drawn) [drawing 81]
[9]
  Cell Viability 10 uM: 97% ± 5% (n = 4)
  Cell Viability 50 uM: 79% ± 10% (n = 4)
[10]
  inhibition at 10 µM: 80%
  inhibition at 50 µM: 100%

## O=c1nc(NO)c(F)cn1[C@@H]1O[C@H](CO)[C@H](O)C1O (stereo partly drawn) [drawing 89]
[1]
  inhibition at 10 µM: 61%
  inhibition at 50 µM: 98%
[2]
  Cell Viability 10 uM: 55% ± 4% (n = 4)
  Cell Viability 50 uM: 36% ± 2% (n = 4)

## CCCCCCCNC(=O)ONc1ccn([C@@H]2O[C@H](CO)[C@H](O)C2O)c(=O)n1 (stereo partly drawn) [drawing 85]
[9]
  Cell Viability 10 uM: 105% ± 2% (n = 4)
  Cell Viability 50 uM: 96% ± 11% (n = 4)
[10]
  inhibition at 10 µM: 14%
  inhibition at 50 µM: 70%

## CCCCCCCCC(=O)ONc1ccn([C@@H]2O[C@H](CO)[C@H](O)C2O)c(=O)n1 (stereo partly drawn)
[7]
  CC50: 36 µg/mL (≈ 90.1 µM)
[8]
  EC50: 0.19 µg/mL (≈ 0.476 µM)

## O=c1nc(NO)ccn1[C@@H]1O[C@H](CO)[C@H](O)C1O (stereo partly drawn) [drawing 96]
[5]
  Cell Viability 10 uM: 75% ± 6% (n = 4)
  Cell Viability 50 uM: 47% ± 3% (n = 4)
[6]
  inhibition at 10 µM: 99%
  inhibition at 50 µM: 100%

## CC(C)OC(=O)[C@H](C)NP(=O)(OC[C@H]1O[C@@H](n2ccc(NO)nc2=O)C(O)[C@H]1O)Oc1ccccc1 (stereo partly drawn) [drawing 93]
[3]
  Cell Viability 10 uM: 102% ± 16% (n = 3)
  Cell Viability 50 uM: 100% ± 17% (n = 3)
[4]
  inhibition at 10 µM: 49%
  inhibition at 50 µM: 96%

## CCCCCCCOC(=O)ONc1ccn([C@@H]2O[C@H](CO)[C@H](O)C2O)c(=O)n1 (stereo partly drawn) [drawing 92]
[3]
  Cell Viability 10 uM: 99% ± 9% (n = 3)
  Cell Viability 50 uM: 94% ± 10% (n = 3)
[4]
  inhibition at 10 µM: 94%
  inhibition at 50 µM: 100%

## O=c1nc(NO)ccn1[C@@H]1O[C@H](CO)[C@H](O)C1O (stereo partly drawn) [drawing 91]
[3]
  Cell Viability 10 uM: 98% ± 12% (n = 3)
  Cell Viability 50 uM: 86% ± 5% (n = 3)
[4]
  inhibition at 10 µM: 99%
  inhibition at 50 µM: 100%

## CCCCCCCOC(=O)ONc1ccn([C@@H]2O[C@H](CO)[C@H](O)C2O)c(=O)n1 (stereo partly drawn) [drawing 82]
[9]
  Cell Viability 10 uM: 93% ± 4% (n = 4)
  Cell Viability 50 uM: 78% ± 8% (n = 4)
[10]
  inhibition at 10 µM: 72%
  inhibition at 50 µM: 98%

## O=c1nc(NO)ccn1[C@@H]1O[C@H](CO)[C@H](O)C1O (stereo partly drawn) [drawing 76]
[11]
  CC50: > 100 µg/mL
[7]
  CC50: 36 µg/mL (≈ 139 µM)
[12]
  EC50: > 100 µg/mL
[8]
  EC50: < 0.1 µg/mL

## CC(C)OC(=O)[C@H](C)NP(=O)(OC[C@H]1O[C@@H](n2ccc(NO)nc2=O)C(O)[C@H]1O)Oc1ccccc1 (stereo partly drawn) [drawing 83]
[9]
  Cell Viability 10 uM: 99% ± 6% (n = 4)
  Cell Viability 50 uM: 99% ± 8% (n = 4)
[10]
  inhibition at 10 µM: 3%
  inhibition at 50 µM: 36%

## CC1(O)[C@@H](O)[C@@H](CO)O[C@H]1n1ccc(NO)nc1=O (stereo partly drawn)
[11]
  CC50: > 100 µg/mL
[7]
  CC50: > 100 µg/mL
[12]
  EC50: > 100 µg/mL
[8]
  EC50: > 100 µg/mL
